Legend:
[1] = tested on: HL60 cells; assay: Detection of metabolically labelled DNA fragments in apoptotic cells (3 hours incubation); assay type: cell-based; settings: 200 ng/ml camptothecin, 37° C.
Description: (§1) The cells to be examined (e.g. HL60 cells, ATCC CCL 240) are firstly metabolically labelled by incubation with 0.01 mmol/l bromodeoxyuridine for 18 hours at 37° C. After removing the excess bromodeoxyuridine that is not incorporated into DNA by washing with culture medium, the cells (200 μl in each case, see Table 1 for cell number) are incubated for 4 hours at 37° C. with 2 μg/ml camptothecin (Sigma, Munich) in a microtitre plate. Afterwards 20 μl 10-fold concentrated lysis buffer (PBS/50 mmol/l EDTA/2 % Tween 20) is added to each preparation for the lysis, the microtitre plate is centrifuged and 100 μl supernatant is taken from each well for the test (PBS=137 mmol/l NaCl; 2.7 mmol/l KCl; 8 mmol/l Na2 HPO4 and 1.5 mmol/l KH2 PO4).
In order to detect the metabolically labelled DNA, a further microtitre plate is coated with an antibody against DNA (5 μg/ml, Boehringer Mannheim GmbH, Ident. No. 1525760) in 100 mmol/l NaCO3 buffer pH 9.6. Subsequently the metabolically labelled DNA is bound to the wall antibody by addition of 100 μl supernatant (see above) per well and incubation for 90 minutes at room temperature. After washing with PBS, the remaining liquid is removed from the wells of the microtitre plate by for example knocking. […]

[2] = tested on: HL60 cells; assay: Detection of metabolically labelled DNA fragments in the cytoplasm of apoptotic cells (4 hours incubation); assay type: cell-based; settings: for A (405 nm), metabolically labelled DNA fragments in the cytoplasm: 37° C.
Description: as §1
In order to detect the metabolically labelled DNA, a further microtitre plate is coated with an antibody against DNA (5 μg/ml, Boehringer Mannheim GmbH, Ident. No. 1525760) in 100 mmol/l NaCO3 buffer pH 9.6. Subsequently the metabolically labelled DNA is bound to the wall antibody by addition of 100 μl supernatant (see above) per well and incubation for 90 minutes at room temperature. After washing with PBS, the remaining liquid is removed from the wells of the microtitre plate by for example knocking. Afterwards the bound double-stranded DNA is denatured or partially degraded by microwave treatment (5 min. 650 watts, AEG Micromat 275Z) or alternatively by addition of 100 μl (corresponding to 1 unit per well of the microtitre plate) exonuclease III (Boehringer Mannheim GmbH, Catalogue No. 779717). The preparation in which the DNA has been denatured by microwave treatment is subsequently cooled for 10 minutes at 8° C. in a refrigerator. The preparation treated with exonuclease III is subsequently washed three times with PBS.
HL60 cells (ATCC CCL 240) were firstly metabolically labelled with bromodeoxyuridine as stated in example 1. After washing out excess bromodeoxyuridine, the cells are incubated in a microtitre plate at 37° C. for 3 or 4 hours with various concentrations of camptothecin (5000 to 0 ng/ml). Subsequently the microtitre plate is centrifuged, an aliquot of the cell culture supernatant (100 μl/well) is taken for the detection of metabolically labelled DNA in the cell culture supernatant according to example 2 and the cells remaining in the microtitre plate are lysed by addition of 100 μl/well 2-fold concentrated lysis buffer (PBS/10 mmol/l EDTA/0.4% Tween 20). The detection of the metabolically labelled DNA in the lysate obtained in this way is then carried out as described in example 1.

Compound: CC[C@@]1(O)C(=O)OCc2c1cc1n(c2=O)Cc2cc3ccccc3nc2-1 [camptothecin]
- A (405 nm), metabolically labelled DNA, cell culture supernatant ([1]; cell culture supernatant (according to example 2)): 0.020
- A (405 nm), metabolically labelled DNA, cytoplasm (lysate after detergent treatment) ([1]; cytoplasm (lysate after detergent treatment)): 0.770
- A (405 nm), metabolically labelled DNA fragments in the cytoplasm ([2]; 1.6 ng/ml camptothecin): 0.295
- A (405 nm), metabolically labelled DNA fragments in the cytoplasm ([2]; 8 ng/ml camptothecin): 0.342
- A (405 nm), metabolically labelled DNA fragments in the cytoplasm ([2]; 40 ng/ml camptothecin): 0.625
- A (405 nm), metabolically labelled DNA fragments in the cytoplasm ([2]; 200 ng/ml camptothecin): 1.006
- A (405 nm), metabolically labelled DNA fragments in the cytoplasm ([2]; 1000 ng/ml camptothecin): 1.457
- A (405 nm), metabolically labelled DNA fragments in the cytoplasm ([2]; 5000 ng/ml camptothecin): 1.677
- amount of cytoplasmic, metabolically labelled DNA fragments (dose dependence) ([2]; camptothecin 5000 to 0 ng/ml): correlates with the amount of camptothecin

— patent US5700639A, “Method for the detection of metabolically labelled DNA” (Boehringer Mannheim GmbH, priority 1993, dated 1997)
